Assay results taken from ChEMBL document CHEMBL1142734, “Biological properties of D- and L-1-deoxyazasugars” (J Med Chem, 2005).

How the values were obtained:
Alpha-galactosidase C = target: T1, Alpha-galactosidase C (Aspergillus niger, UniProt Q9UUZ4); experiment: Inhibitory concentration against alpha-galactosidase of Aspergillus niger
T1 sequence (Q9UUZ4 whole entry): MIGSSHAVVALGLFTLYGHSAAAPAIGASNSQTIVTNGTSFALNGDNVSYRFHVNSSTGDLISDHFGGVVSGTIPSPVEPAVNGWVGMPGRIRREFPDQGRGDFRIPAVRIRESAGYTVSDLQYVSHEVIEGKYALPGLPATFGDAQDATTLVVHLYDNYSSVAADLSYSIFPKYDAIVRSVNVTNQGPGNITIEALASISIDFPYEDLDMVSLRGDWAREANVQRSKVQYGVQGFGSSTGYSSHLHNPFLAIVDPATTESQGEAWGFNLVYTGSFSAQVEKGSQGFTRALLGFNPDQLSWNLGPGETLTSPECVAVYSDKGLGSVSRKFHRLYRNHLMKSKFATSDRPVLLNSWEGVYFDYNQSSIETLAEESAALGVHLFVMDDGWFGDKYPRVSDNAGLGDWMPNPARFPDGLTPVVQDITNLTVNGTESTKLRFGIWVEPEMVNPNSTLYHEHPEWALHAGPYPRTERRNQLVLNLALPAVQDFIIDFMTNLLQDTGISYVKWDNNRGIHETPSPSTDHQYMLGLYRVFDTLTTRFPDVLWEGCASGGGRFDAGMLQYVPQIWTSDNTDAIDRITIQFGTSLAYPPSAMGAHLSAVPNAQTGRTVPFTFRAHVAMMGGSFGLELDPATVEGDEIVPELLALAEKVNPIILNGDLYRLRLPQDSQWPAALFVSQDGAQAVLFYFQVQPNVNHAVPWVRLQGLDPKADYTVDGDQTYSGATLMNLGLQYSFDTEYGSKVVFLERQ

[1] = target: T2, Tissue alpha-L-fucosidase (Bos taurus, UniProt Q2KIM0); experiment: Inhibitory concentration against bovine alpha-L-fucosidase
T2 sequence (Q2KIM0 whole entry): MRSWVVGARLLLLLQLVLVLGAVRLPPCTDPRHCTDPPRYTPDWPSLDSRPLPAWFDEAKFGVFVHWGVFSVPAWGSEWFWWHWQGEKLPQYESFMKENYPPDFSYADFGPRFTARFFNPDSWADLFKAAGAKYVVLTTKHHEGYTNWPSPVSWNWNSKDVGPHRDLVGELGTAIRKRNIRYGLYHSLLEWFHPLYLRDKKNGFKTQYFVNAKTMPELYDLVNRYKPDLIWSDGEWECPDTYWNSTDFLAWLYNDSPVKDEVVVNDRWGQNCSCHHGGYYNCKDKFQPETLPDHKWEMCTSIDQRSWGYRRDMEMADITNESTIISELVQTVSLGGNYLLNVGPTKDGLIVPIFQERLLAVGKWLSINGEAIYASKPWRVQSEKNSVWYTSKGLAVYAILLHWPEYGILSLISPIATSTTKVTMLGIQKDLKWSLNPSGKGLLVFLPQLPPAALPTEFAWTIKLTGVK

| IC50 (Alpha-galactosidase C) [nM] | IC50 [1] [nM] | SMILES |
| --- | --- | --- |
| 1800 | – | OC[C@H]1NC[C@H](O)[C@@H](O)[C@H]1O |
| – | 630 | OC[C@@H]1NC[C@@H](O)[C@H](O)[C@@H]1O |
